# Laboratory results published in PMC9558053, “Development of a novel high-throughput screen for the identification of new inhibitors of protein S-acylation” (The Journal of Biological Chemistry, 2022).
# Target: T1, human zDHHC2 (Homo sapiens, UniProt Q9UIJ5)
# T1 construct: expressed in transfected cells; host or cells: HEK293T
# T1 sequence (Q9UIJ5 1-367): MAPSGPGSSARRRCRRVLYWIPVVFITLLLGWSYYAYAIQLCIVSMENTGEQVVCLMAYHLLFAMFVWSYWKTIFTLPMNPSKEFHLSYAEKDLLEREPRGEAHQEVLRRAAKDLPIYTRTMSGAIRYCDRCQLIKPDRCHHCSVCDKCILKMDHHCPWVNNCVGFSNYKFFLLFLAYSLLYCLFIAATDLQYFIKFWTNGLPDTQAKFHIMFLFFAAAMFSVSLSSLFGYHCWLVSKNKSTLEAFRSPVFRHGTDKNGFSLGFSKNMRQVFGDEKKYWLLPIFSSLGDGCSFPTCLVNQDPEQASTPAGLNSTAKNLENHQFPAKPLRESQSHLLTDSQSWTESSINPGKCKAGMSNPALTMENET
# Experiment: S-acylation (autoacylation) of HA-zDHHC2 in HEK293T cells, click chemistry
# Format: cell-based
# Conditions: resynthesized UoS compounds, 25 μM, p < 0.001 vs DMSO
# Experimental: Figure 8 Activity of TTZ-1 (UoS) and TTZ-2 (UoS) against human zDHHC2 autoacylation expressed in mammalian cells. HEK293T cells were transfected with either the control plasmid pEF-BOS-HA (pEF) or a plasmid encoding HA-tagged human zDHHC2 (zD2) for 24 h. Cells were then preincubated for 4 h with UoS compounds TTZ-1 (UoS) (A) or TTZ-2 (UoS) (B) (25 μM final) or DMSO control before metabolic labeling with 100 μM C16:0-azide for 4 h. Cells were lysed, and proteins having incorporated C16:0-azide were labeled by click chemistry with an alkyne-IR800 dye. Protein samples were then resolved by SDS-PAGE, and the gel was scanned for the detection of the click chemistry signal in the infrared-800 channel. […] Two independent experiments were performed in sextuplicate, and the quantification data were gathered on the graphs below each set of membranes. […]
# HEK293T cells were plated on poly-D-lysine–coated 24-well plates (catalog no.: 356413; Corning BioCoat, VWR) and transfected with 2.4 μg of pEF-zDHHC2 plasmid (or the control empty plasmid pEF-BOS-HA) for the measurement of zDHHC2 autoacylation and 4.8 μl of Lipofectamine 2000 (Invitrogen). […] Membranes were first stained with Revert 700 total protein stain kit (catalog no.: 926-11016; LI-COR), imaged, destained, and then analyzed by immunoblotting. Signals were quantified with ImageStudio software (LI-COR). […]
row,SMILES,S-acylation of HA-zDHHC2 in HEK293T cells
1,"CCCCCCCOc1ccc(C(=O)Nc2cccc3c2OC(c2nnn[nH]2)CN3)cc1 (centres unmarked) [TTZ-1, N-(2-(1H-Tetrazol-5-yl)-3,4-dihydro-2H-benzo[b][1,4]oxazin-8-yl)-4-(heptyloxy)benzamide]",significantly reduced
2,"O=C(Nc1cccc2c1OC(c1nnn[nH]1)CN2)c1ccc(OCCCCc2ccccc2)cc1 (centres unmarked) [TTZ-2, N-(2-(1H-Tetrazol-5-yl)-3,4-dihydro-2H-benzo[b][1,4]oxazin-8-yl)-4-(4-phenylbutoxy)benzamide]",significantly reduced
